{"source": "patent US7722901B2", "about": "“Uses for the extract of a plant of the family Asclepiadaceae” (Cognis IP Management GmbH, priority 2004, dated 2010)", "system": "human hair follicles", "assay": "In vitro culture of human hair follicles (hair growth inhibition)", "type": "cell-based", "conditions": "50 follicles from 5 donors", "procedure": "The hair follicles were incubated for 7 days at 37° C. under an atmosphere of air that was enriched with carbon dioxide (5 vol.-%). The length of hair follicles was monitored before being cultured, after 3 days of culture and after 7 days of culture. […] The test was done on hair follicles coming from 3-5 different donors. For each donor 10 follicles were cultured for each set of conditions. The results presented in table 2 are the cumulated results of all hair follicles.", "key": {"[1]": {"conditions": "with IGF-1 (30 ng/ml), 0.001 % P/v"}}, "data": [{"smiles": "C=C[C@@]1(C)CC(=O)[C@]2(O)[C@@]3(C)[C@@H](O)CCC(C)(C)[C@@H]3[C@H](O)[C@H](OC(C)=O)[C@@]2(C)O1", "note": "[Forskolin]", "values": [{"measurement": "increase in hair growth Day 3/Day 0", "setting": "[1]", "value": "+9%"}, {"measurement": "increase in hair growth Day 7/Day 0", "setting": "[1]", "value": "+17%"}, {"measurement": "increase in hair growth Day 3/Day 0", "setting": "without IGF-1, 0.001 % P/v", "value": "+8%"}, {"measurement": "increase in hair growth Day 7/Day 0", "setting": "without IGF-1, 0.001 % P/v", "value": "+15%"}]}]}
